US11795152B2, “Crystal form of tafamidis and preparation method therefor and use thereof” (CRYSTAL PHARMACEUTICAL (SUZHOU) CO., LTD., priority 2019, dated 2023)
Entries after “also recorded” stand apart in the source; their conditions may differ. Each block holds one compound with its values, some of them ahead of it.

What was measured:
Type in all cases: physicochemical
[1] = Hygroscopicity by dynamic vapor sorption (DVS); conditions: 80% RH; for Weight gain: 25° C., DVS; for hygroscopicity: pharmacopoeia definition
Description: Dynamic Vapor Sorption (DVS) is measured via a SMS (Surface Measurement Systems Ltd.) intrinsic DVS instrument. Its control software is DVS-Intrinsic control software. Typical parameters for DVS tests are as follows:
Gas and flow rate: N2, 200 mL/min
RH range: 0% RH to 95% RH
The weight gains at each relative humidity were recorded in a cycle of 0-95%-0 RH. The XRPD patterns were collected before and after the DVS test and depicted in FIG. 11.
Description and definition of hygroscopicity (general notice 9103 drug hygroscopicity test guidelines in 2015 edition of Chinese Pharmacopoeia, test at 25° C.+/−1° C., 80% RH. The definition of hygroscopicity in the 9th European Pharmacopoeia 5.11 is in consistent with the Chinese Pharmacopoeia.). • deliquescent: sufficient water is absorbed to form a solution. • very hygroscopic: increase in mass is equal to or greater than 15 percent. • hygroscopic: increase in mass is less than 15 percent and equal to or greater than 2 percent. • slightly hygroscopic: increase in mass is less than 2 percent and equal to or greater than 0.2 percent. • non hygroscopic or almost non hygroscopic: Increase in mass is less than 0.2%.
The weight gains at each relative humidity were recorded in a cycle of 0-95%-0RH. The XRPD patterns were collected before and after the DVS test and depicted in FIG. 22. […] Form CSVI is slightly hygroscopic.
The weight gains at each relative humidity were recorded in a cycle of 0-95%-0RH. The XRPD patterns were collected before and after the DVS test and depicted in FIG. 31.

[2] = Compressibility (manual tablet press, tensile strength); conditions: 80 mg, φ6 mm round tooling, 10 KN; for Hardness: 24 hours recovery; for Tensile strength: T=2H/πDL*9.8
Description: An ENERPAC manual tablet press was used for tableting. […] Diameter (D) and thickness (L) were tested with a caliper. Hardness (H) was tested with an intelligent tablet hardness tester. Tensile strength of the powder was calculated with the following formula: T=2H/πDL*9.8. Under a certain force, the greater the tensile strength, the better the compressibility.
Diameter (D) and thickness (L) were tested with a caliper. Hardness (H) was tested with an intelligent tablet hardness tester. Tensile strength of the powder was calculated with the following formula: T=2H/πDL*9.8. Under a certain force, the greater the tensile strength, the better the compressibility.

[3] = Dissolution profile of capsules in pH6.8 PBS; conditions: capsule 61 mg, paddle 50 rpm, 37° C.
Description: The cumulative dissolution was measured at different time in pH6.8 PBS.

[4] = Stability of drug substance on storage (XRPD, HPLC purity); conditions: for chemical purity during storage: drug substance
Excerpt: Crystalline form and chemical impurity were checked by XRPD and HPLC, respectively.
Crystalline form and purity were checked by XRPD and HPLC, respectively.

[5] = Grinding stability (XRPD before and after grinding); conditions: manually ground in the mortar for five minutes
Excerpt: A certain amount of Form CSV and WO2016038500 Form 1 were manually ground in the mortar for five minutes.

[6] = Stability of Form CSV in drug product; conditions: for Purity % / Solid Form: drug product
Excerpt: X-ray powder diffraction patterns of drug product stability study in the present disclosure were acquired by a Bruker D8 Discover X-ray powder diffractometer. The parameters of the X-ray powder diffraction method of the present disclosure are as follows:
The XRPD patterns were collected before and after the formulation process.

[7] = Dissolution profile of tablets in pH6.8 PBS+1% Tween 80; conditions: tablet 61 mg, paddle 75 rpm, 37° C.
Description: (§1) The cumulative dissolution was measured at different time in pH6.8 PBS+1% Tween 80 and pH6.8 PBS+3% Tween 80. The dissolution results are presented in Table 24 (FIG. 23) and Table 25 (FIG. 24).
The cumulative dissolution was measured at different time in pH6.8 PBS+1% Tween 80.

[8] = Dissolution profile of tablets in pH6.8 PBS+3% Tween 80; conditions: tablet 61 mg, paddle 75 rpm, 37° C.
Description: as §1

[9] = Adhesiveness (material sticking to the punch); conditions: 30 mg, φ8 mm round tooling, 10 KN held for 30 s
Description: The punch was weighed and amount of material sticking to the punch was calculated. The compression was repeated twice and the cumulative amount, maximum amount and average amount of material sticking to the punch during the compression were recorded.

[10] = Stability of crystalline form of Compound I in WO2019175263 in drug product formulation process; conditions: formulation of Table 34, stirring at room temperature
Excerpt: The crystalline form of Compound I in WO2019175263 was made into drug products according to the formulation and preparation process in Table 34 and Table 35. The XRPD patterns were collected before and after the formulation process. […] Form change occurred during stirring at room temperature.

[11] = 40° C./75% RH, Sealed, 6 months
[12] = 60° C./75% RH, Sealed, 2 months
[13] = 40° C./75% RH and 60° C./75% RH
[14] = double aluminum blister, 25° C./60% RH, 3 months
[15] = double aluminum blister, 40° C./75% RH, 3 months

Weight gain [1]: 0.09%
Hardness [2]: 4.85 kgf
Tensile strength [2]: 2.86 MPa
Cumulative drug release (%) ([3]; 0 min): 0.0%
Cumulative drug release (%) ([3]; 5 min): 6.6%
Cumulative drug release (%) ([3]; 10 min): 67.6%
Cumulative drug release (%) ([3]; 15 min): 82.8%
Cumulative drug release (%) ([3]; 20 min): 88.4%
Cumulative drug release (%) ([3]; 30 min): 89.1%
Cumulative drug release (%) ([3]; 45 min): 87.4%
Cumulative drug release (%) ([3]; 60 min): 86.4%
Purity ([4]; 25° C./60% RH, Open, 6 months): 99.96%
Solid Form ([4]; 25° C./60% RH, Open, 6 months): Form CSV
Purity ([4]; 40° C./75% RH, Open, 6 months): 99.96%
Solid Form ([4]; 40° C./75% RH, Open, 6 months): Form CSV
Purity [4, 11]: 99.96%
Solid Form [4, 11]: Form CSV
Purity ([4]; 60° C./75% RH, Open, 2 months): 99.94%
Solid Form ([4]; 60° C./75% RH, Open, 2 months): Form CSV
Purity [4, 12]: 99.94%
Solid Form [4, 12]: Form CSV
Purity ([4]; Initial): 99.96%
Solid Form ([4]; Initial): Form CSV
chemical purity during storage ([4]; 25° C./60% RH): above 99.9%
chemical purity during storage [4, 13]: above 99.9%
crystallinity after grinding [5]: keeps substantially unchanged
Purity % ([6]; Initial): 99.84%
Solid Form ([6]; Initial): Form CSV
Purity % [6, 14]: 99.87%
Solid Form [6, 14]: Form CSV
Purity % [6, 15]: 99.86%
Solid Form [6, 15]: Form CSV
stability in the formulation process (XRPD before and after) ([6]; formulation of Table 10, process of Table 11): stable in the formulation process
Compound: O=C(O)/C=C/C(=O)O.O=C(O)c1ccc2nc(-c3cc(Cl)cc(Cl)c3)oc2c1.O=C(O)c1ccc2nc(-c3cc(Cl)cc(Cl)c3)oc2c1 [Form CSV]
hygroscopicity [1]: non hygroscopic or almost non-hygroscopic; also recorded: non-hygroscopic or almost non-hygroscopic

Weight gain [1]: 0.21%
Cumulative drug release in pH 6.8 PBS + 1% Tween 80 (%) ([7]; 0 min): 0.0%
Cumulative drug release in pH 6.8 PBS + 1% Tween 80 (%) ([7]; 5 min): 19.1%
Cumulative drug release in pH 6.8 PBS + 1% Tween 80 (%) ([7]; 10 min): 28.3%
Cumulative drug release in pH 6.8 PBS + 1% Tween 80 (%) ([7]; 15 min): 34.7%
Cumulative drug release in pH 6.8 PBS + 1% Tween 80 (%) ([7]; 20 min): 39.8%
Cumulative drug release in pH 6.8 PBS + 1% Tween 80 (%) ([7]; 30 min): 47.4%
Cumulative drug release in pH 6.8 PBS + 1% Tween 80 (%) ([7]; 45 min): 56.0%
Cumulative drug release in pH 6.8 PBS + 1% Tween 80 (%) ([7]; 60 min): 62.1%
Cumulative drug release in pH 6.8 PBS + 1% Tween 80 (%) ([7]; 90 min): 70.4%
Cumulative drug release in pH 6.8 PBS + 1% Tween 80 (%) ([7]; 120 min): 75.7%
Cumulative drug release in pH 6.8 PBS + 1% Tween 80 (%) ([7]; 150 min): 80.7%
Purity ([4]; 25° C./60% RH, Open, 6 months): 99.96%
Solid Form ([4]; 25° C./60% RH, Open, 6 months): Form CSVI
Purity ([4]; 40° C./75% RH, Open, 6 months): 99.95%
Solid Form ([4]; 40° C./75% RH, Open, 6 months): Form CSVI
Purity [4, 11]: 99.95%
Solid Form [4, 11]: Form CSVI
Purity [4, 12]: 99.95%
Solid Form [4, 12]: Form CSVI
Purity ([4]; Initial): 99.95%
Solid Form ([4]; Initial): Form CSVI
chemical purity during storage ([4]; 25° C./60% RH): above 99.9%
chemical purity during storage [4, 13]: above 99.9%
Cumulative drug release in pH 6.8 PBS + 3% Tween 80 (%) ([8]; 0 min): 0.0%
Cumulative drug release in pH 6.8 PBS + 3% Tween 80 (%) ([8]; 5 min): 27.0%
Cumulative drug release in pH 6.8 PBS + 3% Tween 80 (%) ([8]; 10 min): 38.2%
Cumulative drug release in pH 6.8 PBS + 3% Tween 80 (%) ([8]; 15 min): 46.4%
Cumulative drug release in pH 6.8 PBS + 3% Tween 80 (%) ([8]; 20 min): 51.9%
Cumulative drug release in pH 6.8 PBS + 3% Tween 80 (%) ([8]; 30 min): 60.4%
Cumulative drug release in pH 6.8 PBS + 3% Tween 80 (%) ([8]; 45 min): 68.5%
Cumulative drug release in pH 6.8 PBS + 3% Tween 80 (%) ([8]; 60 min): 73.8%
Cumulative drug release in pH 6.8 PBS + 3% Tween 80 (%) ([8]; 90 min): 79.2%
Cumulative drug release in pH 6.8 PBS + 3% Tween 80 (%) ([8]; 120 min): 81.9%
Compound: O=C(O)CCCC(=O)O.O=C(O)c1ccc2nc(-c3cc(Cl)cc(Cl)c3)oc2c1.O=C(O)c1ccc2nc(-c3cc(Cl)cc(Cl)c3)oc2c1 [Form CSVI]
hygroscopicity [1]: slightly hygroscopic (increase in mass is less than 2 percent and equal to or greater than 0.2 percent)

Hardness [2]: 2.32 kgf
Tensile strength [2]: 1.78 MPa
Cumulative drug release (%) ([3]; 0 min): 0.0%
Cumulative drug release (%) ([3]; 5 min): 14.0%
Cumulative drug release (%) ([3]; 10 min): 27.3%
Cumulative drug release (%) ([3]; 15 min): 29.1%
Cumulative drug release (%) ([3]; 20 min): 28.1%
Cumulative drug release (%) ([3]; 30 min): 27.6%
Cumulative drug release (%) ([3]; 45 min): 26.8%
Cumulative drug release (%) ([3]; 60 min): 21.8%
Cumulative drug release in pH 6.8 PBS + 1% Tween 80 (%) ([7]; 0 min): 0.0%
Cumulative drug release in pH 6.8 PBS + 1% Tween 80 (%) ([7]; 5 min): 4.0%
Cumulative drug release in pH 6.8 PBS + 1% Tween 80 (%) ([7]; 10 min): 10.4%
Cumulative drug release in pH 6.8 PBS + 1% Tween 80 (%) ([7]; 15 min): 15.6%
Cumulative drug release in pH 6.8 PBS + 1% Tween 80 (%) ([7]; 20 min): 19.5%
Cumulative drug release in pH 6.8 PBS + 1% Tween 80 (%) ([7]; 30 min): 25.7%
Cumulative drug release in pH 6.8 PBS + 1% Tween 80 (%) ([7]; 45 min): 33.0%
Cumulative drug release in pH 6.8 PBS + 1% Tween 80 (%) ([7]; 60 min): 38.4%
Cumulative drug release in pH 6.8 PBS + 1% Tween 80 (%) ([7]; 90 min): 46.8%
Cumulative drug release in pH 6.8 PBS + 1% Tween 80 (%) ([7]; 120 min): 53.3%
Cumulative drug release in pH 6.8 PBS + 1% Tween 80 (%) ([7]; 150 min): 61.4%
crystallinity after grinding [5]: decreases
Average amount (mg) of material sticking to the punch [9]: 0.265 mg
Cumulative drug release in pH 6.8 PBS + 3% Tween 80 (%) ([8]; 0 min): 0.0%
Cumulative drug release in pH 6.8 PBS + 3% Tween 80 (%) ([8]; 5 min): 22.7%
Cumulative drug release in pH 6.8 PBS + 3% Tween 80 (%) ([8]; 10 min): 33.1%
Cumulative drug release in pH 6.8 PBS + 3% Tween 80 (%) ([8]; 15 min): 39.7%
Cumulative drug release in pH 6.8 PBS + 3% Tween 80 (%) ([8]; 20 min): 45.0%
Cumulative drug release in pH 6.8 PBS + 3% Tween 80 (%) ([8]; 30 min): 52.5%
Cumulative drug release in pH 6.8 PBS + 3% Tween 80 (%) ([8]; 45 min): 60.5%
Cumulative drug release in pH 6.8 PBS + 3% Tween 80 (%) ([8]; 60 min): 65.9%
Cumulative drug release in pH 6.8 PBS + 3% Tween 80 (%) ([8]; 90 min): 73.0%
Cumulative drug release in pH 6.8 PBS + 3% Tween 80 (%) ([8]; 120 min): 77.2%
Compound: O=C(O)c1ccc2nc(-c3cc(Cl)cc(Cl)c3)oc2c1 [WO2016038500 Form 1, reference compound]

stability in the formulation process (XRPD before and after) [10]: unstable in the formulation process
Compound: O=C(O)c1ccc2nc(-c3cc(Cl)cc(Cl)c3)oc2c1
